From US20240002393A1, “SUBSTITUTED BENZO[f][l ,2,4JTRIAZOL0[4,3-a][l ,4J[…] GABA A GAMMA! POSITIVE ALLOSTERIC MODULATORS” (Hoffmann-La Roche Inc., priority 2020, published 2024)

Legend:
[1] = molecular target: human GABAA α2β2γ1 receptor (Homo sapiens (Human), UniProt P47869+Q8N1C3); assay: Radioligand binding assay, [3H]RO7239181 competition, γ1-containing GABAA subtypes; settings: for γ2/γ1 Selectivity Ratio: Ki α1β3γ2 (nM)/Ki α2β2γ1 (nM); for LogSel: Log[Ki α1β3γ2 (nM)/Ki α2β2γ1 (nM)]
Method: The affinity of compounds at GABAA γ1 subunit-containing receptors was measured by competition for [^3H]RO7239181 (67.3 Ci/mmol; Roche) binding to membranes from HEK293F cells (ThermoFisher R79007) expressing human (transiently transfected) receptors of composition α5β2γ1, α2β2γ1, α1β2γ1.
Harvested pellets from HEK293F cells expressing the different GABAA receptor subtypes were resuspended in Mannitol Buffer pH 7.2-7.4 (Mannitol 0.29M, Triethylamine 10 mM, Acetic acid 10 mM, EDTA 1 mM plus protease inhibitors (20 tablets Complete, Roche Diagnostics Cat. No. 05 056 489 001 per liter)), washed two times and then resuspended at 1:10 to 1:15 dilution in the same buffer. Cell disruption was performed by stirring the suspension in a Parr vessel #4637 at 435 psi for 15 minutes, and then the suspensions were centrifuged at 1000×g for 15 minutes at 4° C. (Beckman Avanti J-HC; rotor JS)-4.2). The supernatant (S1) was transferred in a 21 Schott flask and the pellet (P1) was resuspended with Mannitol Buffer up to 175 ml. The resuspended pellet was transferred into a 250 ml Corning centrifugal beaker and centrifuged at 1500×g for 10 minutes at 4° C. (Beckman Avanti J-HC; rotor JS)-4.2). The supernatant (S1) was then transferred in the 21 Schott flask and the pellet was discarded. The supernatants (S1) were centrifuged in 500 ml Beckman polypropylene centrifugal beaker at 15,000×g for 30 minutes at 4° C. (Beckman Avanti J-20 XP; rotor JLA-10.500). The pellet (P2) was resuspended with Mannitol Buffer 1:1 and frozen at −80° C. The supernatant (S2) was centrifuged in 100 ml Beckman polypropylene centrifugal tubes at 48000×g for 50 minutes at […] (Beckman Avanti J-20 XP; rotor JA-18). The supernatant (S3) was discarded and the pellet (P3) was resuspended with 1:1 Mannitol Buffer. The P2 and P3 protein concentration was determined with the BIORAD Standard assay method with bovine serum albumin as standard and measured on the NANO-Drop 1000. The membrane suspension was aliquots (500 μl per tube) and stored at −80° C. until required.
Membrane homogenates were resuspended and polytronised (Polytron PT1200E Kinematica AG) in Potassium Phosphate 10 mM, KCl 100 mM binding buffer at pH 7.4 to a final assay concentration determined with a previous experiment.
Assays were incubated to equilibrium for 1 hour at 4° C. and then, membranes were filtered onto unifilter (96-well white microplate with bonded GF/C filters preincubated 20-50 minutes in 0.3% Polyethylenimine) with a Filtermate 196 harvester (Packard BioScience) and washed 4 times with cold Potassium Phosphate 10 mM pH 7.4, KCl 100 mM binding buffer. After drying, filter-retained radioactivity was detected by liquid scintillation counting. K, values were calculated using Excel-Fit (Microsoft) and are the means of two determinations.

h-GABA-A α2β2γ1 = h-GABA-A α2β2γ1 (Homo sapiens (Human), UniProt P47869+Q8N1C3); assay: Two-electrode voltage clamp electrophysiology in Xenopus oocytes expressing GABAA receptors; type: cell-based; settings: for potentiation of the GABA-induced current in α2βγ1 GABAA receptor subtype expressing oocytes: reference PAMs, GABA EC20
Method: Xenopus laevis oocytes at maturation stages V-VI were used for the expression of cloned mRNA encoding GABAA receptor subunits. Oocytes ready for RNA micro-injection were bought from Ecocyte, Castrop-Rauxel, Germany and stored in modified Barth's medium (composition in mM: NaCl 88, KCl 1, NaHCO3 2.4, HEPES 10, MgSO4 0.82, CaNO3 0.33, CaCl2 0.33, pH=7.5) at 20° C. until the experiment.
Oocytes were plated in 96-well plates for microinjection using the Roboinject automated instrument (MultiChannelSystems, Reutlingen, Germany). Approximately 50 nL of an aqueous solution containing the RNA transcripts for the subunits of the desired GABAA receptor subtype was injected into each oocyte. […] Oocytes were kept in modified Barth's medium (composition in mM: NaCl 88, KCl 1, NaHCO3 […], HEPES 10, MgSO4 0.82, CaNO3 0.33, CaCl2 0.33, pH=7.5) at 20° C. until the experiment.
Electrophysiological experiments were performed using the Roboocyte instrument (MultiChannelSystems, Reutlingen, Germany) on days 3 to 5 after the micro-injection of mRNA. During the experiment the oocytes were constantly superfused by a solution containing (in mM) NaCl 90, KCl 1, HEPES 5, MgCl2 1 CaCl2 1 (pH 7.4). Oocytes were impaled by two glass microelectrodes (resistance: 0.5-0.8 MΩ) which were filled with a solution containing KCl 1M+K-acetate 1.5 M and voltage-clamped to −80 mV. The recordings were performed at room temperature using the Roboocyte two-electrode voltage clamp system (Multichannelsystem). After an initial equilibration period of 1.5 min GABA was added for 1.5 min at a concentration evoking approximately 20% of a maximal current response (EC20). After another rest interval of 2.5 min GABA was again added evoking a response of similar amplitude and shape. […] Current traces were recorded at a digitization rate of 10 Hz during and shortly before and after the GABA application.
Each compound and concentration was tested on at least 3 oocytes. Different oocytes were used for different compound concentrations.
For the analysis, the digitized current traces of the first and second GABA response were superimposed and, if necessary, rescaled to equal maximal amplitudes. The ratio between the two responses during the time interval of test compound application was calculated point by point. The extremum of the resulting “ratio trace” was taken as the efficacy (“Fold increase”) of the compound expressed as “% modulation of GABA EC20” (100*(Fold increase−1)).

[2] = molecular target: human GABAA α1β3γ2 receptor (Homo sapiens (Human), UniProt P14867+P18507); assay: Radioligand binding assay, [3H]Flumazenil competition, γ2-containing GABAA subtypes
Method: The affinity of compounds at GABAA γ2 subunit-containing receptors was measured by competition for [^3H]Flumazenil (81.1 Ci/mmol; Roche) binding to HEK293F cells expressing human (transiently transfected) receptors of composition α1β3γ2.
Harvested pellets from HEK293F cells expressing the different GABAA γ2 receptor subtypes were resuspended in Mannitol Buffer pH 7.2-7.4 and processed as described above for the cells expressing the GABAA γ1 subunit-containing receptors.
Assays were incubated to equilibrium for 1 hour at 4° C. and harvested onto GF/C uni-filters (Packard) by filtration using a Packard harvester and washing with ice-cold wash buffer (50 mM Tris; pH 7.5). After drying, filter-retained radioactivity was detected by liquid scintillation counting. Ki values were calculated using Exel-Fit (Microsoft) and are the means of two determinations.

| Compound | γ2/γ1 Selectivity Ratio [1] | LogSel [1] | potentiation of the GABA-induced current in α2βγ1 GABAA receptor subtype expressing oocytes (h-GABA-A α2β2γ1) | Ki [1] | Ki [2] | Efficacy (GABA)% (h-GABA-A α2β2γ1; % modulation of GABA EC20 = 100*(Fold increase−1), compound at 30-fold Ki) |
| --- | --- | --- | --- | --- | --- | --- |
| Cc1nnc2n1-c1ccc(Br)cc1C(c1c(F)cccc1F)=NC2 [RE-A, 8-bromo-6-(2,6-difluorophenyl)-1-methyl-4H-[1,2,4]triazolo[4,3-a][1,4]benzodiazepine, reference compound] | 0.18 | −0.74 | – | – | – | – |
| Cc1nnc2n1-c1ccc(Cl)cc1C(c1ccccc1Cl)=NC2 [Triazolam, reference compound] | – | −1.5 | ~60% | – | – | – |
| Clc1ccc2c(c1)C(c1ccccc1)=NCc1nncn1-2 [Estazolam, reference compound] | 0.0089 | −2.0 | – | – | – | – |
| Cc1nnc2n1-c1cccc(Cl)c1C(c1c(F)cccc1F)=N[C@H]2C [RE-D, (4S)-7-chloro-6-(2,6-difluorophenyl)-1,4-dimethyl-4H-[1,2,4]triazolo[4,3-a][1,4]benzodiazepine, reference compound] | 2.215 | 0.35 | – | 454 nM | 1010 nM | – |
| Cc1nnc2n1-c1ccc(C(F)(F)F)cc1C(c1c(F)cccc1F)=NC2 [RE-B, 6-(2,6-difluorophenyl)-1-methyl-8-(trifluoromethyl)-4H-[1,2,4]triazolo[4,3-a][1,4]benzodiazepine, reference compound] | 0.23 | −0.64 | – | – | – | – |
| Cc1nnc2n1-c1ccc(Cl)cc1C(c1ccccc1)=NC2 [Alprazolam, reference compound] | 0.0050 | −2.3 | – | – | – | – |
| Cc1nnc2n1-c1ccccc1C(c1c(F)cccc1F)=NC2 [RE-C, 6-(2,6-difluorophenyl)-1-methyl-4H-[1,2,4]triazolo[4,3-a][1,4]benzodiazepine, reference compound] | 0.0092 | −2.0 | – | – | – | – |
| Cc1ncc2n1-c1ccc(Cl)cc1C(c1ccccc1F)=NC2 [Midazolam, reference compound] | 0.0068 | −2.2 | ~60% | – | – | – |
| CN1C(=O)CN=C(c2ccccc2F)c2cc([N+](=O)[O-])ccc21 [Flunitrazepam, reference compound] | – | – | ~60% | – | – | – |
| CCc1nnc2n1-c1ccc(C(F)(F)F)c(Cl)c1C(c1c(F)cccc1F)=N[C@H]2C [Example 108, (4S)-7-chloro-6-(2,6-difluorophenyl)-1-ethyl-4-methyl-8-(trifluoromethyl)-4H-[1,2,4]triazolo[4,3-a][1,4]benzodiazepine] | 50.4 | – | – | – | – | 94% |
